Paper PMC9029089, “1,5-Disubstituted Acylated 2-Amino-4,5-dihydroimidazoles as a New Class of Retinoic Acid Receptor–Related Orphan Receptor (ROR) Inhibitors” (International Journal of Molecular Sciences, 2022)

Target: T1, RORγ (Mus musculus, UniProt P51450)
T1 construct: mRORγ (Pro-261-end); expressed in transfected cells
T1 sequence (P51450 261-516 limits assumed): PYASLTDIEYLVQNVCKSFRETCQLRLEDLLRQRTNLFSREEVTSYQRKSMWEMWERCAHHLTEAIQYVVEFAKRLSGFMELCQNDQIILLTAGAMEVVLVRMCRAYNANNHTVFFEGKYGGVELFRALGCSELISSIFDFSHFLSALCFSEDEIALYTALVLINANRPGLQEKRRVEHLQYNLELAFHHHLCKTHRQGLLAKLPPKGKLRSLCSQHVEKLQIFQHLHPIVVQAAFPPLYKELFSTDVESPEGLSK
Test: Gal4-RORγ-LBD UAS-luciferase reporter assay in TRex-CHO-K1 cells (doxycycline-stimulated)
Type: cell-based
Conditions: IC50 (μM) (N=4) RORγ, individual controls of library 1295, second confirmatory dose response, Figure 2
Source text: (§1) The Gal4-DBD-ROR-LBD fusion proteins were subcloned in the pcDNA4/TO expression vector (Thermo Scientific) and transfected into TRex-CHO-K1 cells (Thermo Scientific) for tetracycline-controlled expression of the corresponding ROR proteins. Transfected cells were selected with hygromycin and Zeocin and individual clones for each of the Gal4-RORγ, Gal4-RORα, and Gal4-RORβ cell lines were isolated using a standard serial dilution protocol. Clones with the highest doxycycline-dependent stimulation of luciferase activity were selected for all functional experiments.
(§2) For screening FIU libraries, cells were resuspended in Ham’s F-12 assay medium containing 2% charcoal-treated FBS and no selection drugs. […] Cells were allowed to attach for 2 h, followed by compound treatment and stimulation with 20 ng/mL doxycycline for an additional 16–20 h. Appropriate solvent controls, negative controls with no doxycycline, and blanks with no cells were included in every plate. Prior to measuring luciferase activity, 6 µL of 0.15 mg/mL resazurin (Cayman Chemical) in PBS were added and cells were incubated for 1 h at 37 °C. Fluorescence intensity was detected at 545 nm excitation/590 nm emission using a CLARIOstar reader (BMGLabtech) as a measure of cell viability, to identify any potential cytotoxic effect of test compounds and mixtures.
(§3) Luminescence was normalized by the fluorescence intensity and the percentage of inhibition was calculated with respect to control cells stimulated with doxycycline in the presence of solvent control (0.1% DMF). All primary screens with individual compounds were performed in triplicate with a final concentration of 5 µg/mL. […] IC50 values were calculated using GraphPrism (GraphPad software).

Row | IC50 [µM] | Compound
1 | 5.9 ± 3.3 | O=C(Cc1ccccc1)NC1=NC[C@H](Cc2ccccc2)N1CCC1CC2CCC1C2 (stereo partly shown) [1295.270]

Same assay, conditions: T-REx-CHO-K1, read-out: % Inhibition RORγ 5 μg/ml

Row | inhibition at 5 µg/mL [%] | Compound
2 | 84.6 | O=C(Cc1ccccc1)NC1=NC[C@H](Cc2ccccc2)N1CCC1CC2CCC1C2 (stereo partly shown) [1295.270]

Same assay, conditions: individual controls 1295.201-307, 5 μg/ml, triplicate

Row | Compound | % Inhibition RORγ 5 μg/ml [%]
3 | O=C(Cc1ccccc1)NC1=NC[C@@H](Cc2ccc(F)cc2)N1CCc1ccccc1 [1295.228] | 31.3
4 | O=C(Cc1ccccc1)NC1=NC[C@@H](CC2CCCCC2)N1CCc1ccccc1 [1295.224] | 9.6
5 | CCCCN1C(NC(=O)Cc2ccccc2)=NC[C@@H]1Cc1ccccc1 [1295.253] | -12.1
6 | COc1ccc(CCCN2C(NC(=O)Cc3ccccc3)=NC[C@H]2Cc2ccccc2)cc1OC [1295.247] | 32.5
7 | CCOc1ccc(C[C@H]2CN=C(NC(=O)Cc3ccccc3)N2CCc2ccccc2)cc1 [1295.233] | 31.0
8 | O=C(Cc1ccccc1)NC1=NC[C@@H](c2ccccc2)N1CCc1ccccc1 [1295.220] | -5.2
9 | Cc1cccc(CC(=O)NC2=NC[C@H](Cc3ccccc3)N2CCc2ccccc2)c1 [1295.275] | 60.7
10 | O=C(Cc1ccccc1)NC1=NC[C@H](Cc2ccc(O)cc2)N1CCc1ccccc1 [1295.207] | -85.0
11 | C[C@@H]1CN=C(NC(=O)Cc2ccccc2)N1CCc1ccccc1 [1295.208] | -9.3
12 | O=C(Cc1ccccc1)NC1=NC[C@H](Cc2ccc(F)cc2)N1CCc1ccccc1 [1295.227] | -8.2
13 | O=C(Cc1ccccc1)NC1=NC[C@H](Cc2ccccc2)N1CC1CCCCCC1 [1295.263] | -8.4
14 | O=C(Cc1ccccc1)NC1=NC[C@H](Cc2ccccc2)N1CCc1ccccc1 [1295.250] | 9.9
15 | CC(CCN1C(NC(=O)Cc2ccccc2)=NCC1Cc1ccccc1)c1ccccc1 (mixture of isomers) [1295.236] | 26.8
16 | O=C(NC1=NC[C@H](Cc2ccccc2)N1CCc1ccccc1)C1CCCC1 [1295.303] | 3.3
17 | CC(C)C[C@@H]1CN=C(NC(=O)Cc2ccccc2)N1CCc1ccccc1 [1295.211] | 38.8
18 | COc1ccc(CC(=O)NC2=NC[C@H](Cc3ccccc3)N2CCc2ccccc2)cc1OC [1295.287] | 54.7
19 | O=C(Cc1ccccc1)NC1=NC[C@H](Cc2ccccc2)N1CC1CCCCC1 [1295.260] | -10.7
20 | O=C(Cc1ccccc1)NC1=NC[C@H](Cc2ccccc2)N1CC1CCCC1 [1295.266] | 99.6

Target: T1, RORγ
Test: as above
Type: cell-based
Conditions: library 2520, RORγ cells

Row | Compound | % Inhibition at 4 μM (N=3) [%]
21 | COc1ccc(CC(=O)NC2=NCC(Cc3ccc4ccccc4c3)N2CCC2CC3CCC2C3)cc1 (mixture of isomers) [2520.02] | -33.8
22 | CC(C)C(=O)NC1=NCC(Cc2ccc3ccccc3c2)N1CCC(C)c1ccccc1 (mixture of isomers) [2520.04] | -40.8
23 | CCC(C(=O)NC1=NCC(Cc2ccc3ccccc3c2)N1CC1CCCCC1)c1ccccc1 (mixture of isomers) [2520.03] | -31.8

Results, then the compound that gave them:

Row | % Inhibition at 4 μM (N=3) [%] | Compound
24 | -21.7 | CCC(C(=O)NC1=NCC(Cc2ccccc2)N1CCC1CC2CCC1C2)c1ccccc1 (mixture of isomers) [2520.35]
25 | 26.2 | CC[C@H](C)[C@H]1CN=C(NC(=O)Cc2ccc(OC)cc2)N1CC1CCCCC1 [2520.18]
26 | -7.3 | COc1ccc(CC(=O)NC2=NCC(Cc3ccc4ccccc4c3)N2CCC(C)c2ccccc2)cc1 (mixture of isomers) [2520.10]
27 | -8.1 | CCOc1ccc(CC2CN=C(NC(=O)C(C)C)N2CCC(C)c2ccccc2)cc1 (mixture of isomers) [2520.40]
28 | -5.4 | CC(C)C(=O)NC1=NC[C@H](Cc2ccccc2)N1CC1CCCCC1 [2520.36]
29 | 36.0 | CC(C)C(=O)NC1=NCC(Cc2ccccc2)N1CCC1CC2CCC1C2 (mixture of isomers) [2520.32]
30 | -5.4 | CCOc1ccc(CC2CN=C(NC(=O)C(CC)c3ccccc3)N2CCC(C)c2ccccc2)cc1 (mixture of isomers) [2520.43]
31 | 43.0 | CCC(C)C1CN=C(NC(=O)Cc2ccc(OC)cc2)N1CCC1CC2CCC1C2 (mixture of isomers) [2520.14]
32 | 34.4 | COc1ccc(CC(=O)NC2=NCC(Cc3ccccc3)N2CCC(C)c2ccccc2)cc1 (mixture of isomers) [2520.34]
33 | -20.0 | CCOc1ccc(CC2CN=C(NC(=O)C(C)C)N2CCC2CC3CCC2C3)cc1 (mixture of isomers) [2520.44]
34 | -22.6 | CCOc1ccc(CC2CN=C(NC(=O)Cc3ccc(OC)cc3)N2CCC2CC3CCC2C3)cc1 (mixture of isomers) [2520.38]
35 | 13.3 | CCC(C)C1CN=C(NC(=O)C(C)C)N1CCC1CC2CCC1C2 (mixture of isomers) [2520.20]
36 | -4.8 | COc1ccc(CC(=O)NC2=NC[C@H](Cc3ccccc3)N2CC2CCCCC2)cc1 [2520.30]
37 | 35.9 | CCC(C(=O)NC1=NCC(C(C)CC)N1CCC1CC2CCC1C2)c1ccccc1 (mixture of isomers) [2520.23]
38 | -56.4 | COc1ccc(CC(=O)NC2=NC[C@H](Cc3ccc4ccccc4c3)N2CC2CCCCC2)cc1 [2520.06]
39 | 40.8 | COc1ccc(CC(=O)NC2=NCC(Cc3ccccc3)N2CCC2CC3CCC2C3)cc1 (mixture of isomers) [2520.26]
40 | 30.4 | CC(C)C(=O)NC1=NC[C@H](Cc2ccc3ccccc3c2)N1CC1CCCCC1 [2520.12]
41 | -32.2 | CCC(C(=O)NC1=NCC(Cc2ccc3ccccc3c2)N1CCC(C)c1ccccc1)c1ccccc1 (mixture of isomers) [2520.07]

Target: T2, RORα (Homo sapiens, UniProt P35398)
T2 construct: hRORα (Pro-211-end); expressed in transfected cells
T2 sequence (P35398 266-523): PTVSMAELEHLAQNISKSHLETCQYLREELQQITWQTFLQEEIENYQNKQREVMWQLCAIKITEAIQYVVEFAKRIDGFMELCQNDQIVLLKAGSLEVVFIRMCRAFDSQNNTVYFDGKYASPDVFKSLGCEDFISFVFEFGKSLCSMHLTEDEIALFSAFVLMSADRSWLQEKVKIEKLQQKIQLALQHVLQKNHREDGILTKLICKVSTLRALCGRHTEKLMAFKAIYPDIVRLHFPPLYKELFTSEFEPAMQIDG
Test: Gal4-RORα-LBD UAS-luciferase reporter assay in TRex-CHO-K1 cells (doxycycline-stimulated)
Type: cell-based
Conditions: IC50 (μM) (N=4) RORα, individual controls of library 1295, second confirmatory dose response, Figure 2
Source text: as §1, §2, §3

Row | IC50 [µM] | Compound
42 | 9 ± 0.2 | O=C(Cc1ccccc1)NC1=NC[C@H](Cc2ccccc2)N1CCC1CC2CCC1C2 (stereo partly shown) [1295.270]

Target: T3, RORβ (Rattus norvegicus, UniProt P45446)
T3 construct: rRORβ (Pro 205-end); expressed in transfected cells
T3 sequence (P45446 205-459 isoform P45446-1): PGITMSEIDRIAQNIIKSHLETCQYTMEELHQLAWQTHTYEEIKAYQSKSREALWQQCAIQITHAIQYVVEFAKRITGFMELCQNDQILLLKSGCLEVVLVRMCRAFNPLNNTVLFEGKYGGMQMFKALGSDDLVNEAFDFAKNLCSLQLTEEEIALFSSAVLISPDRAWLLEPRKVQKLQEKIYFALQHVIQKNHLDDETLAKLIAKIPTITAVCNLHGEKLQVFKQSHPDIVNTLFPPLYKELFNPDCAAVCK
Test: Gal4-RORβ-LBD UAS-luciferase reporter assay in TRex-CHO-K1 cells (doxycycline-stimulated)
Type: cell-based
Conditions: IC50 (μM) (N=4) RORβ, individual controls of library 1295, second confirmatory dose response, Figure 2
Source text: To investigate the transcriptional activity of all three RORs, we generated stable cell lines expressing an UAS-driven luciferase reporter together with the corresponding Gal4-DNA binding domain fused to the ligand binding domains (LBDs) of mRORγ (Pro-261-end), hRORα (Pro-211-end), or rRORβ (Pro 205-end). The Gal4-DBD-ROR-LBD fusion proteins were subcloned in the pcDNA4/TO expression vector (Thermo Scientific) and transfected into TRex-CHO-K1 cells (Thermo Scientific) for tetracycline-controlled expression of the corresponding ROR proteins. Transfected cells were selected with hygromycin and Zeocin and individual clones for each of the Gal4-RORγ, Gal4-RORα, and Gal4-RORβ cell lines were isolated using a standard serial dilution protocol. Clones with the highest doxycycline-dependent stimulation of luciferase activity were selected for all functional experiments. All cell lines were maintained in complete Ham’s F12 medium containing 10% fetal bovine serum (FBS), 10 µg/mL blasticidine, 100 µg/mL hygromycin, and 100 µg/mL Zeocin and were used within 2 months of culture without any loss of doxycycline-dependent stimulation of luciferase activity.
For screening FIU libraries, cells were resuspended in Ham’s F-12 assay medium containing 2% charcoal-treated FBS and no selection drugs. Ten thousand cells per well were seeded in 30 µL of assay medium in 384 white plates with clear bottom (Greiner). Cells were allowed to attach for 2 h, followed by compound treatment and stimulation with 20 ng/mL doxycycline for an additional 16–20 h. Appropriate solvent controls, negative controls with no doxycycline, and blanks with no cells were included in every plate. Prior to measuring luciferase activity, 6 µL of 0.15 mg/mL resazurin (Cayman Chemical) in PBS were added and cells were incubated for 1 h at 37 °C. Fluorescence intensity was detected at 545 nm excitation/590 nm emission using a CLARIOstar reader (BMGLabtech) as a measure of cell viability, to identify any potential cytotoxic effect of test compounds and mixtures. Following the resazurin assay, the medium was removed and 20 µL of BriteLite-Plus luciferase reagent (Perking Elmer) were added; luminescence was measured in a CLARIOstar reader using a 384 aperture spoon and a 0.1 sec measuring time interval.
as §3

Row | IC50 [µM] | Compound
43 | 9.3 ± 4.9 | O=C(Cc1ccccc1)NC1=NC[C@H](Cc2ccccc2)N1CCC1CC2CCC1C2 (stereo partly shown) [1295.270]
